Assay results: patent US12686687B2, “Compounds and uses thereof” (Foghorn Therapeutics Inc., priority 2019, dated 2026)
Like-named read-outs stand apart in the source and are kept apart here.

Biological target: T1, Nanoluciferase-BRD9 fusion protein (3×FLAG-NLuc-BRD9) in SYO-1 cells (Homo sapiens, UniProt Q9H8M2)
T1 construct: expressed in transfected cells; host or cells: SYO-1
T1 sequence (Q9H8M2 1-597): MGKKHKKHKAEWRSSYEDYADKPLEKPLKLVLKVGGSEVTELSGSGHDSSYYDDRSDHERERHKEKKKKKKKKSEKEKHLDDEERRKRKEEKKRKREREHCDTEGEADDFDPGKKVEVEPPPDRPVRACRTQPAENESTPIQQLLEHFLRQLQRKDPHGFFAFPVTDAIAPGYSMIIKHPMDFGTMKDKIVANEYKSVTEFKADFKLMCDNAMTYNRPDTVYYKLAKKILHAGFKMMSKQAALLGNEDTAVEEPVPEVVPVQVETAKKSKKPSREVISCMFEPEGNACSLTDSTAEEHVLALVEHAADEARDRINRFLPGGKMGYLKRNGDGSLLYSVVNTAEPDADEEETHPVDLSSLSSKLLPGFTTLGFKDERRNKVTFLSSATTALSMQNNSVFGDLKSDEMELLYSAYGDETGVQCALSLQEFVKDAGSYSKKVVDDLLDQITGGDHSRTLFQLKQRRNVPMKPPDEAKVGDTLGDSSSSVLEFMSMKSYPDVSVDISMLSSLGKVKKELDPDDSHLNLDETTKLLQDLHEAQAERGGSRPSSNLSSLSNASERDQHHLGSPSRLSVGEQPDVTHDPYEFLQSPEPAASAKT
Assay: SYO1 BRD9 NanoLuc degradation assay
Type: cell-based
Details: SYO-1 cells expressing 3×FLAG-NLuc-BRD9, 6 hours incubation, 1 μM top dose, read-out: SYO1 BRD9-NanoLuc degradation IC50
Protocol: Procedure: A stable SYO-1 cell line expressing 3×FLAG-NLuc-BRD9 was generated. On day 0 cells were seeded in 30 μL media into each well of 384-well cell culture plates. The seeding density was 8000 cells/well. On day 1, cells were treated with 30 nL DMSO or 30 nL of 3-fold serially DMSO-diluted compounds (10 points in duplicates with 1 μM as final top dose). Subsequently plates were incubated for 6 hours in a standard tissue culture incubator and equilibrated at room temperature for 15 minutes. Nanoluciferase activity was measured by adding 15 μL of freshly prepared Nano-Glo Luciferase Assay Reagent (Promega N1130), shaking the plates for 10 minutes and reading the bioluminescence using an EnVision reader. • Results: The Inhibition % was calculated using the following formula: % Inhibition=100×(LumHC−LumSample)/(LumHC−LumLC). DMSO treated cells are employed as High Control (HC) and 1 μM of a known BRD9 degrader standard treated cells are employed as Low Control (LC).

SMILES | DC50 (Table 6C) | DC50 (Table 6B)
COc1cc(-c2cn(C)c(=O)c3ncsc23)cc(OC)c1CN1CCC2(CC1)CN(c1ccc3c(c1)C(=O)N(C1CCC(=O)NC1=O)C3=O)C2 (centres unmarked) [Compound D202] | < 10 nM | –
COc1cc(-c2cn(C)c(=O)c3cc(C(=O)NC4CCN(c5ccc6c(c5)CN(C5CCC(=O)NC5=O)C6=O)CC4(F)F)sc23)cc(OC)c1CN(C)C (centres unmarked) [Compound D164] | < 10 nM | –
COc1cc(-c2cn(C)c(=O)c3cc(C(=O)NC4CCN(CCCN5CCN(c6ccc7c(c6)C(=O)N(C6CCC(=O)NC6=O)C7=O)CC5)CC4(F)F)sc23)cc(OC)c1CN(C)C (centres unmarked) [Compound D60] | – | < 10 nM
COc1cc(-c2cn(C)c(=O)c3sncc23)cc(OC)c1CN1CC(CN2CCC3(CC2)CN(c2ccc4c(c2)C(=O)N(C2CCC(=O)NC2=O)C4)C3)C1 (centres unmarked) [Compound D201] | < 10 nM | –
COc1cc(-c2cn(C)c(=O)c3cc(C(=O)NC4CCN(C(=O)CCCCOc5cccc6c5C(=O)N(C5CCC(=O)NC5=O)C6=O)CC4)sc23)cc(OC)c1CN1CCC1 (centres unmarked) [Compound D29] | – | < 10 nM
COc1cc(-c2cn(C)c(=O)c3cc(C(=O)N[C@@H]4CCN(C5CCN(c6ccc7c(c6)C(=O)N([C@@H]6CCC(=O)NC6=O)C7)CC5)CC4(F)F)sc23)cc(OC)c1CN(C)C [Compound D134] | < 10 nM | –
COc1cc(-c2cn(C)c(=O)c3cc(C(=O)NC4CCN(C(=O)CN5CCN(c6ccc7c(c6)C(=O)N(C6CCC(=O)NC6=O)C7=O)CC5)CC4)sc23)cc(OC)c1CN(C)C (centres unmarked) [Compound D77] | – | < 10 nM
COc1cc(-c2cn(C)c(=O)c3cc(C(=O)NC4CN(c5ccc6c(c5)CN(C5CCC(=O)NC5=O)C6=O)CC4(F)F)sc23)cc(OC)c1CN(C)C (centres unmarked) [Compound D180] | < 10 nM | –
COc1cc(-c2cn(C)c(=O)c3cc(C(=O)NC4CCC5(CCN(C(=O)CCN6CCN(c7ccc8c(c7)C(=O)N(C7CCC(=O)NC7=O)C8=O)CC6)C5)C4)sc23)cc(OC)c1CN(C)C (centres unmarked) [Compound D47] | – | > 10 nM
COc1cc(-c2cn(C)c(=O)c3cc(C(=O)NC4CCCN(CCCCCOc5cccc6c5C(=O)N(C5CCC(=O)NC5=O)C6=O)CC4)sc23)cc(OC)c1CN(C)C (centres unmarked) [Compound D88] | – | > 10 nM
COc1cc(-c2cn(C)c(=O)c3sccc23)cc(OC)c1CN1CCC(CN2CCC3(CC2)CC(Oc2ccc4c(c2)CN(C2CCC(=O)NC2=O)C4=O)C3)CC1 (centres unmarked) [Compound D199] | < 10 nM | –
COc1cc(-c2cn(C)c(=O)c3ocnc23)cc(OC)c1CN1CCC2(CC1)CN(c1ccc3c(c1)C(=O)N(C1CCC(=O)NC1=O)C3)C2 (centres unmarked) [Compound D217] | < 10 nM | –
COc1cc(-c2cn(C)c(=O)c3cc(C(=O)NC4CCN(C5CC6(C5)CN(c5ccc7c(c5)CN(C5CCC(=O)NC5=O)C7=O)C6)CC4(F)F)sc23)cc(OC)c1CN(C)C (centres unmarked) [Compound D137] | > 100 nM | –
COc1cc(-c2cn(C)c(=O)c3cc(C(=O)NC4CCN(CCCCN5CCN(c6ccc7c(c6)C(=O)N(C6CCC(=O)NC6=O)C7=O)CC5)CC4)sc23)cc(OC)c1CN(C)C (centres unmarked) [Compound D86] | – | < 10 nM
COc1cc(-c2cn(C)c(=O)c3cc(C(=O)NCC4CC5(CCN(C(=O)CCN6CCN(c7ccc8c(c7)C(=O)N(C7CCC(=O)NC7=O)C8=O)CC6)CC5)CO4)sc23)cc(OC)c1CN(C)C (centres unmarked) [Compound D48] | – | > 10 nM
COc1cc(-c2cn(C)c(=O)c3cc(C(=O)NC4CCN(c5ccc6c(c5)C(=O)N(C5CCC(=O)NC5=O)C6=O)CC4(F)F)sc23)cc(OC)c1CN(C)C (centres unmarked) [Compound D192] | < 10 nM | –
COc1cc(-c2cn(C)c(=O)c3sncc23)cc(OC)c1CN1CCC2(CC1)CN(c1ccc3c(c1)C(=O)N(C1CCC(=O)NC1=O)C3)C2 (centres unmarked) [Compound D203] | < 10 nM | –
COc1cc(OC)cc(-c2cn(C)c(=O)c3cc(C(=O)NC4CN(c5ccc6c(c5)C(=O)N(C5CCC(=O)NC5=O)C6)C4)sc23)c1 (centres unmarked) [Compound D115] | < 10 nM | –
COc1cc(OC)cc(-c2cn(C)c(=O)c3cc(C(=O)NC4CCN(c5ccc6c(c5)C(=O)N(C5CCC(=O)NC5=O)C6)CC4)oc23)c1 (centres unmarked) [Compound D219] | < 10 nM | –
COc1cc(-c2cn(C)c(=O)c3cc(C(=O)NCC4CC5CN(CCCN6CCN(c7ccc8c(c7)C(=O)N(C7CCC(=O)NC7=O)C8=O)CC6)CC5C4)sc23)cc(OC)c1CN(C)C (centres unmarked) [Compound D42] | – | < 10 nM
COc1cc(OC)cc(-c2cn(C)c(=O)c3cc(C(=O)NC4CCN(C5CCN(c6ccc7c(c6)C(=O)N(C6CCC(=O)NC6=O)C7)CC5)CC4(F)F)sc23)c1 (centres unmarked) [Compound D98] | < 10 nM | –

SMILES | DC50 (Table 6C) | DC50 (Table 6B)
COc1cc(-c2cn(C)c(=O)c3cc(C(=O)NC4C[C@@H]5CN(C(=O)CCN6CCN(c7ccc8c(c7)C(=O)N(C7CCC(=O)NC7=O)C8=O)CC6)C[C@H]45)sc23)cc(OC)c1CN(C)C (some centres unmarked) [Compound D63] | – | > 100 nM
Cn1cc(-c2cccc(C(F)(F)F)c2)c2sc(C(=O)NC3CN(c4ccc5c(c4)C(=O)N(C4CCC(=O)NC4=O)C5)C3)cc2c1=O (centres unmarked) [Compound D103] | < 10 nM | –
COc1cc(-c2cn(C)c(=O)c3ncsc23)cc(OC)c1CN1CC(Oc2ccc3c(c2)C(=O)N(C2CCC(=O)NC2=O)C3)C1 (centres unmarked) [Compound D212] | < 10 nM | –
COc1cc(-c2cn(C)c(=O)c3cc(C(=O)NC4CCC5CN(C(=O)CCN6CCN(c7ccc8c(c7)C(=O)N(C7CCC(=O)NC7=O)C8=O)CC6)CC54)sc23)cc(OC)c1CN(C)C (centres unmarked) [Compound D58] | – | > 10 nM
COc1cc(-c2cn(C)c(=O)c3cc(C(=O)NC4CC5(CCN(CCCN6CCN(c7ccc8c(c7)C(=O)N(C7CCC(=O)NC7=O)C8=O)CC6)C5)C4)sc23)cc(OC)c1CN(C)C (centres unmarked) [Compound D73] | – | < 10 nM
COc1cc(-c2cn(C)c(=O)c3cc(C(=O)NC4CCN(CCN5CCC6(CC5)CN(c5ccc7c(c5)CN(C5CCC(=O)NC5=O)C7=O)C6)CC4(F)F)sc23)cc(OC)c1CN(C)C (centres unmarked) [Compound D19] | – | < 10 nM
COc1cc(-c2cn(C)c(=O)c3cc(C(=O)NCC4CC5(CCN(CCCN6CCN(c7ccc8c(c7)C(=O)N(C7CCC(=O)NC7=O)C8=O)CC6)CC5)CO4)sc23)cc(OC)c1CN(C)C (centres unmarked) [Compound D49] | – | < 10 nM
COc1cc(-c2cn(C)c(=O)c3ccsc23)cc(OC)c1CN1CCN(C(=O)c2csc(C(=O)c3c[nH]c4ccccc34)n2)CC1 [DD2] | > 1000 nM | –
Cn1cc(-c2cccc(C(F)(F)F)c2)c2sc(C(=N)NC3CCS(=O)(=O)N(CC(=O)NCCCCCCCCNc4cccc5c4C(=O)N(C4CCC(=O)NC4=O)C5=O)C3)cc2c1=O (centres unmarked) [Compound D31] | – | > 10 nM
COc1cc(-c2cn(C)c(=O)c3cc(C(=O)NC4CCN(C)CC4)sc23)cc(OC)c1CN(C)CC(=O)NCCOCCOc1cccc2c1C(=O)N(C1CCC(=O)NC1=O)C2=O (centres unmarked) [Compound D32] | – | > 100 nM
COc1cc(-c2cn(C)c(=O)c3ccsc23)cc(OC)c1CN1CCN(c2ccc3c(c2)C(=O)N(C2CCC(=O)NC2=O)C3)CC1 (centres unmarked) [Compound D194] | < 10 nM | –
COc1cc(-c2cn(C)c(=O)c3cc(C(=O)NCC4CC45CCN(CCN4CCN(c6ccc7c(c6)C(=O)N(C6CCC(=O)NC6=O)C7=O)CC4)CC5)sc23)cc(OC)c1CN(C)C (centres unmarked) [Compound D57] | – | < 10 nM
COc1cc(-c2cn(C)c(=O)c3cc(C(=O)NC4CCN(CCCCCOc5ccc6c(c5)C(=O)N(C5CCC(=O)NC5=O)C6=O)CC4(F)F)sc23)cc(OC)c1CN(C)C (centres unmarked) [Compound D90] | – | < 10 nM
COc1cc(-c2cn(C)c(=O)c3cc(C(=O)NC4CCN(c5ccc6c(c5)C(=O)N(C5CCC(=O)NC5=O)C6)CC4)sc23)cc(OC)c1CN(C)C (centres unmarked) [Compound D146] | < 10 nM | –
COc1cc2c(=O)n(C)cc(-c3cc(OC)c(CN4CCC(CN5CCC6(CC5)CN(c5ccc7c(c5)C(=O)N(C5CCC(=O)NC5=O)C7)C6)CC4)c(OC)c3)c2s1 (centres unmarked) [Compound D100] | < 10 nM | –
COc1cc(-c2cn(C)c(=O)c3cc(C)sc23)cc(OC)c1CN1CCC(CN2CCC3(CC2)CC(Oc2ccc4c(c2)C(=O)N(C2CCC(=O)NC2=O)C4=O)C3)CC1 (centres unmarked) [Compound D173] | < 10 nM | –
COc1cc(-c2cn(C)c(=O)c3cc(C(=O)NC4CCN(C(=O)c5csc(C(=O)c6c[nH]c7ccccc67)n5)CC4(F)F)sc23)cc(OC)c1CN(C)C (centres unmarked) [DD1] | > 1000 nM | –
COc1cc(-c2cn(C)c(=O)c3cc(C(=O)NCC4CC5(C4)CN(CCN4CCN(c6ccc7c(c6)C(=O)N(C6CCC(=O)NC6=O)C7=O)CC4)C5)sc23)cc(OC)c1CN(C)C (centres unmarked) [Compound D53] | – | > 10 nM
COc1cc(-c2cn(C)c(=O)c3ncsc23)cc(OC)c1CN1CCC2(CC1)CN(c1ccc3c(c1)C(=O)N(C1CCC(=O)NC1=O)C3)C2 (centres unmarked) [Compound D204] | > 100 nM | –
COc1cc(-c2cn(C)c(=O)c3cc(C#N)sc23)cc(OC)c1CN1CCC(CN2CCC3(CC2)CN(c2ccc4c(c2)C(=O)N(C2CCC(=O)NC2=O)C4)C3)CC1 (centres unmarked) [Compound D101] | < 10 nM | –
